In US9499493B2, “2,4-pyrimidinediamine compounds and their uses” (Rigel Pharmaceuticals, Inc., priority 2002, dated 2016):
Like-named read-outs stand apart in the source and are kept apart here.

Experiments:
[1] = system: FcγRI-mediated degranulation; assay: FcγRI receptor-mediated degranulation (activation with anti-human IgG Fab fragment); format: cell-based; conditions: cells not primed with IgE, activated with rabbit anti-human IgG Fab fragment
[2] = Sheep model of allergic asthma (Ascaris suum challenge); format: in vivo
Procedure: Sheep develop bronchoconstriction within minutes of exposure to inhaled antigen (Ascaris suum), with maximal airflow obstruction during the early allergic response (EAR). Release of preformed mast cell mediators is likely responsible for this early phase of airflow obstruction. […] In the sheep, AHR develops a few hours following antigen challenge, and can persist for up to 2 weeks.
In the sheep model of allergic asthma, sheep are administered aerosols of test article via an endotracheal tube, followed by an aerosol challenge with antigen extracted from the roundworm, Ascaris suum, to which the sheep are naturally allergic. Allergen challenge leads to direct bronchoconstriction (both EAR and LAR) and a persistent non-specific AHR. These three characteristics are similar to those seen in human allergic asthmatics. The activity of the test agent is determined by changes in the lung resistance (RL), which is calculated from measurements of transpulmonary pressure, flow, and respiratory volume. […] The LAR is a less pronounced increase in RL, which starts approximately 5-6 hours following allergen challenge and is resolved by 8 hours post-challenge. Twenty-four hours after the challenge, a dose response to carbachol is measured to determine the AHR, which is expressed as the dose of carbachol required to increase RL by 400% over baseline. (This measurement is referred to as the provocative concentration of carbachol that elicits a 400% increase in RL over baseline (PC400). The data are compared to historical control data for the same individual when administered a saline control aerosol and challenged with Ascaris suum.

[3] = system: IgE-induced degranulation of tissue mast cells; assay: Mouse model of passive cutaneous anaphylaxis (PCA); format: in vivo; conditions: for % Inhibition (PCA) / Plasma level: PO
Procedure: (§1) This model provides a direct measure of IgE-induced degranulation of tissue mast cells. In this model, IgE primed animals are exposed to an allergen challenge, and the change in permeability of dermal vasculature that results from histamine release from mast cells is measured by change in the amount of dye leakage into surrounding tissue. Inhibition of mediator release by compounds that modulate mast cell degranulation is easily measured by extracting the dye from the tissue.
(§2) In the PCA assay mice are passively sensitized by intradermal injection with anti-dinitrophenol (DNP) IgE antibodies (Day −1). At predetermined times animals are treated with the test agent (Day 0). The modulatory effect of the agent on cutaneous mast cell degranulation is measured following intravenous injection of DNP conjugated to human serum albumin (HSA-DNP), together with Evans blue dye. The resulting cross-linking of the IgE receptor and subsequent mast cell degranulation-induced increase in vascular permeability is determined by measuring the amount of dye extravasation into the tissue. Dye is extracted from the tissue by formamide, and the absorbance of this extract is read at 620 nm.

[4] = system: CHMC cells; assay: Phosphorylation of proteins downstream of Syk / LYN kinase in the FcεRI cascade, activated CHMC cells; format: cell-based, human; conditions: varying concentrations, FIG. 10
[5] = system: BMMC cells; assay: Phosphorylation of proteins downstream of Syk kinase in the IgE receptor cascade, activated BMMC cells; format: cell-based, mouse; conditions: varying concentrations, FIG. 7
[6] = 14-day repeat-dose intranasal toxicity study in New Zealand White rabbits; format: in vivo
Procedure: A 14-day repeat-dose intranasal toxicity study in New Zealand White rabbits was performed at doses of 1.7, 3.4 or 5.0 mg/kg/day. In life parameters included: clinical observations, body weights, food consumption, ophthalmology, hematology, clinical chemistry, gross necropsy, organ weights, toxicokinetic assessments and histopathology (including the nasal cavity).

[7] = target: Syk kinase (Homo sapiens (Human), UniProt P43405); assay: Isolated Syk kinase: phosphorylation of a peptide substrate or endogenous substrate (LAT); conditions: increasing concentrations; FIG. 8
[8] = system: CHMC cells; assay: ionomycin-induced calcium ion flux in CHMC cells; format: cell-based, human; conditions: 10 μM compound
[9] = Exposure to skin and eyes; conditions: in vivo
Description: (§3) A short discussion of key toxicology studies is provided.

[10] = Immediacy (time course) of inhibitory activity; format: cell-based; conditions: FIG. 5
[11] = Genetic toxicology testing
Description: as §3

[12] = system: CHMC cells; assay: anti-IgE-induced calcium ion flux in CHMC cells; format: cell-based, human; conditions: 10 μM compound
[13] = Core safety pharmacology battery (cardiovascular, respiratory, central nervous system function); conditions: in vivo
Description: as §3

[14] = 14-day repeat-dose toxicity studies (summary of non-clinical safety program); format: in vivo, rabbits and primates; mice and rats
Description: as §3

[15] = 14-day repeat-dose intranasal toxicity study in Cynomolgus monkeys; format: in vivo
Procedure: A 14-day repeat-dose intranasal toxicity study in Cynomolgus monkeys was performed at doses of 2.1, 4.5 or 6.3 mg/kg/day. In life parameters included: clinical observations, body weights, food consumption, ophthalmology, blood pressure, electrocardiography, hematology, clinical chemistry, urinalysis, immunotoxicological assessment, gross necropsy, organ weights, toxicokinetic assessments and histopathology (including the nasal cavity).

[16] = Mouse model of passive cutaneous anaphylaxis (PCA); format: in vivo; conditions: mouse, plasma, PO, 1.5% Avicel/water, 200 mg/kg, read-out: Plasma level (duration of action)
Procedure: as §1, §2

[17] = in vivo; conditions: mouse, po
[18] = Pharmacokinetics / oral bioavailability in rats; format: in vivo; conditions: rat, in vivo
Procedure: Over 50 2,4-pyrimidinediamine compounds of the invention were tested for oral bioavailability. For the study, compounds were dissolved in various vehicles (e.g. PEG 400 solution and CMC suspension) for intravenous and oral dosing in the rats. Following administration of the drug, plasma samples were obtained and extracted. The plasma concentrations of the compounds were determined by high performance liquid chromatography/tandem mass spectrometry (LC/MS/MS) methods. Pharmacokinetic analyses were performed based on the plasma concentration data. The pharmacokinetic parameters of interest include Clearance (CL), Volume of distribution at steady-state (Vss), terminal half-life (t1/2), and oral bioavailability (% F).

[19] = format: in vivo; conditions: rat, 50, 150 and 300 mg/kg
[20] = in vitro chromosomal aberration assay
[21] = system: Salmonella-Escherichia coli tester strains; conditions: Salmonella / Escherichia coli
[22] = mouse, in vivo
[23] = system: bone marrow derived mast cells (BMMC); assay: BMMC high cell density ionomycin activation: hexosaminidase; format: cell-based, mouse; conditions: second part of TABLE 1, read-out: BMMC Ionomycin hexos. IC50
[24] = system: bone marrow derived mast cells (BMMC); assay: BMMC high cell density IgE activation: hexosaminidase; format: cell-based, mouse; conditions: anti-IgE, second part of TABLE 1, read-out: BMMC anti-IgE hexos. IC50
Summary of the method: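 IgE-sensitized BMMC at 1-3×10^6 cells/ml preincubated 1 hour at 37° C. with compound (0.5% DMSO), then stimulated 1 hour with DNP-BSA (6× stimulus 60 ng/ml). Supernatant hexosaminidase measured with 2 mM 4-methylumbelliferyl-N-acetyl-glucosaminide substrate at 37° C., read at 5–30 minutes.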

[25] = system: cultured human mast cells (CHMC); assay: CHMC low cell density ionomycin activation: hexosaminidase (Hexos.) release; format: cell-based
[26] = system: cultured human mast cells (CHMC); assay: CHMC low cell density anti-IgE activation: hexosaminidase (Hexos.) release; format: cell-based
[27] = system: basophil cells; assay: Basophil IgE activation: histamine release assay; format: cell-based, human; conditions: Basophils, anti-IgE
Procedure: (§4) The basophil activation assay was carried out using whole human peripheral blood from donors allergic to dust mites with the majority of the red blood cells removed by dextran sedimentation. Human peripheral blood was mixed 1:1 with 3% dextran T500 and RBCs were allowed to settle for 20-25 min. The upper fraction was diluted with 3 volumes of D-PBS and cells were spun down for 10 min at 1500 rpm, RT. Supernatant was aspirated and cells were washed in an equal volume MT-buffer. Finally, cells were resuspended in MT-buffer containing 0.5% DMSO in the original blood volume. 80 uL cells were mixed with 20 uL compound in the presence of 0.5% DMSO, in triplicate, in a V-bottom 96-well tissue culture plate. A dose range of 8 compound concentrations was tested resulting in a 10-point dose response curve including maximum (stimulated) and minimum (unstimulated) response. […] The cells were stimulated for 30 minutes at 37° C., 5% CO2. The plate was spun for 10 min at 1500 rpm at room temperature and 80 uL the supernatant was harvested for histamine content analysis using the histamine ELISA kit supplied by Immunotech. The ELISA was performed according to supplier's instructions.

[28] = system: basophil cells; assay: Basophil ionomycin activation: histamine release assay; format: cell-based, human; conditions: Basophils
Procedure: as §4
Assays for ionomycin-induced basophil cell degranulation were carried out as described for the Basophil IgE or Dustmite Activation Assay (Section 6.4.6, supra), with the exception that following incubation with compound, cells were stimulated with 20 μl of 2 μM ionomycin.

[29] = 30 mg/sheep, pretreatment 15 min, 10% ethanol
[30] = 67% PEG/33% citrate buffer, pretreatment 10 min, 50 mg/kg
[31] = 67% PEG/33% citrate buffer, pretreatment 10 min, 100 mg/kg
[32] = 67% PEG/33% citrate buffer, pretreatment 10 min, 200 mg/kg

With `Oc1cccc(Nc2ncc(F)c(Nc3cccc(O)c3)n2)c1` [R921218, N2,N4-Bis(3-hydroxyphenyl)-5-fluoro-2,4-pyrimidinediamine] the “FcγRI-mediated degranulation (in words)” value [1] was “inhibit FcγRI-mediated degranulation”, the “AHR (% inhibition)” value [2, 29] was 101% and the “EAR (% inhibition)” value [2, 29] was 66%. For the same compound, the “LAR (% inhibition)” value [2, 29] was 78%, the “EAR (in words)” value ([2]; aqueous suspension) was “failed to inhibit” and the “% Inhibition (PCA)” value [3, 30] was 7%. The Plasma level [3, 30] was 3 µg/mL, the “% Inhibition (PCA)” value [3, 31] was 11% and the Plasma level [3, 31] was 4 µg/mL. For the same compound, the “% Inhibition (PCA)” value [3, 32] was 50%, the Plasma level [3, 32] was 18 µg/mL and the “FcεR-mediated vascular leakage with increasing doses (in words)” value ([3]; solution (67% PEG/33% citrate buffer) or aqueous suspension (1.5% Avicel)) was “dose-dependent inhibition”. The “phosphorylation of proteins downstream of Syk kinase” value [4] was “inhibit”, the “phosphorylation of various proteins downstream of Syk kinase” value [5] was “inhibit” and the adverse findings ([6]; intranasal 1.7, 3.4 or 5.0 mg/kg/day) was “no adverse findings”. The NOAEL at 14 days ([6]; rabbit, in vivo, inhaled or intranasal, intranasal, New Zealand White rabbits, read-out: NOAEL (no observed adverse effect level)) was 5 mg/kg/day, the “Syk kinase phosphorylation of a peptide substrate” value [7] was “dose responsive inhibition” and the “Syk kinase phosphorylation of an endogenous substrate (LAT)” value [7] was “dose responsive inhibition”. For the same compound, the “ionomycin-induced Ca2+ flux” value [8] was “no effect”, the “effects after exposure to skin and eyes” value [9] was “nor were there untoward effects” and the “onset of inhibitory activity” value [10] was “immediacy of the inhibitory activity”. For the same compound, the “mutagenic or clastogenic potential” value [11] was “no evidence for mutagenic or clastogenic potential”, the “anti-IgE-induced Ca2+ flux” value [12] was “inhibited” and the “findings in core safety pharmacology battery” value [13] was “no adverse findings”. For the same compound, the “dose limiting toxicity, intranasal route, non-rodents (rabbits and primates)” value [14] was “no dose limiting toxicity”, the “dose limiting toxicity, oral route, rodents (mice and rats)” value [14] was “no dose limiting toxicity” and the NOAEL at 14 days ([15]; cynomolgus monkey, in vivo, inhaled or intranasal, intranasal, Cynomolgus monkeys, read-out: NOAEL (no observed adverse effect level)) was 6.3 mg/kg/day. For the same compound, the adverse findings ([15]; intranasal 2.1, 4.5 or 6.3 mg/kg/day) was “no adverse findings”.

In the case of `Nc1cccc(Nc2ncc(F)c(Nc3cccc(N)c3)n2)c1` [R921302, N2,N4-Bis(3-aminophenyl)-5-fluoro-2,4-pyrimidinediamine], the “FcγRI-mediated degranulation (in words)” value [1] is reported as “inhibit FcγRI-mediated degranulation”, the Plasma level ([3]; 1.5% Avicel/water, pretreatment 60 min, 50 mg/kg) is reported as 25 µg/mL and the Plasma level ([3]; 1.5% Avicel/water, pretreatment 60 min, 100 mg/kg) is reported as 38 µg/mL. For the same compound, the Plasma level ([3]; 1.5% Avicel/water, pretreatment 60 min, 150 mg/kg) was 64 µg/mL, the Plasma level ([3]; 1.5% Avicel/water, pretreatment 60 min, 200 mg/kg) was 105 µg/mL and the “time prior to antigen-induced receptor signaling over which vascular permeability was inhibited before efficacy began to decrease” value ([3]; mouse, in vivo) was 1 to 2 h. It also gave a concentration at 30 min ([16]; pretreatment 30 min) of 88 µg/mL, a concentration at 60 min ([16]; pretreatment 60 min) of 53 µg/mL and a concentration at 120 min ([16]; pretreatment 120 min) of 61 µg/mL. For the same compound, the concentration at 240 min ([16]; pretreatment 240 min) was 8 µg/mL, the NOAEL at 14 days [17] was 100 mg/kg and the “metabolic stability in pharmacokinetics studies (in words)” value [18] was “most metabolically stable compound”. For the same compound, the “tolerability, oral doses for 32 days” value [19] was “appeared to be well tolerated”, the clastogenic potential [20] was “not clastogenic” and the Ames test result [21] was “test positive in tester strain TA98 with S9 and TA1537, with and without metabolic activation”. The “oral dose tolerated for up to 7-days” value [22] was 1000 mg/kg, the “tolerability, 28-day oral toxicity study” value ([22]; 100 mg/kg) was “appeared to be well tolerated” and the “tolerability, 28-day oral toxicity study” value ([22]; 300 mg/kg) was “not tolerated”.

Compound `Fc1cnc(Nc2ccc(N3CCOCC3)cc2)nc1Nc1ccc(N2CCOCC2)cc1` [R926114, N2,N4-Bis[4-(N-morpholino)phenyl]-5-fluoro-2,4-pyrimidinediamine] has an IC50 [23] of over 10 µM, an IC50 [24] of over 10 µM and an IC50 [25] of 8.1 µM. The IC50 [26] was 3.43 µM, the IC50 [27] was 1.7 µM and the IC50 [28] was 10 µM.
